Source: US20260053723A1, “PLAQUE DISCLOSING COMPOSITION” (AIOBIO CO, LTD., priority 2020, published 2026)

Key:
[1] = Evaluation of fluorescence intensity of RPS (Qraycam Pro images, fluorescence spectrometer); assay type: physicochemical
Protocol: (§1) Sterile distilled water (DW, (1)), gargle (GG, Soom Mouthwash, (2)), saliva (S (F-X), (3)) and filtered saliva (S(F-O), (4)) 100 mg/ml RPS stock formulation (plates were prepared after preparation by diluting at concentrations of 100 mg/mL, 50 mg/mL, 25 mg/mL, 12.5 mg/mL, 6.25 mg/ml, 3.12 mg/mL, 1.5 mg/mL, 0.78 mg/mL, 0.39 mg/mL, 0.19 mg/mL, and 0.1 mg/mL.
Each plate prepared was photographed with the Qraycam Pro (AIOBIO, Seoul, Korea) to obtain white light and blue light images. Then, fluorescence intensity was measured using a fluorescence spectrometer (Varioskan, excitation=405 nm/emission=520 nm).

[2] = Highest concentration at which RPS was completely dissolved; assay type: physicochemical
Protocol: as §1
A plaque staining agent, 2-tone (2T), used in clinical practice was diluted to a concentration of 10% and set as a control group. As an experimental group, two concentrations, 50 mg/mL (the highest concentration at which RPS was completely dissolved) and 0.4 mg/mL (the strongest fluorescence intensity), were selected based on the results of Experimental Example 1 above.

concentration of the maximum fluorescence intensity ([1]; fluorescence spectrometer, excitation=405 nm/emission=520 nm, all solvents (DW, gargle, saliva, filtered saliva)): 400 µg/mL
highest concentration at which RPS was completely dissolved [2]: 50 mg/mL
Compound: Cc1cc2nc3c(=O)[nH]c(=O)nc-3n(C[C@H](O)[C@H](O)[C@H](O)COP(=O)([O-])O)c2cc1C.[Na+] [RPS, riboflavin 5-phosphate sodium]
trend of fluorescence intensity with concentration ([1]; fluorescence spectrometer, excitation=405 nm/emission=520 nm): increased from 0.01 mg/mL to 0.39 mg/mL, and then decreased again
fluorescence colour, visual evaluation of images ([1]; shift from high concentration (100 mg/mL) to low concentration): red fluorescence was converted to green fluorescence
difference in fluorescence between solvents, visual evaluation ([1]; white light and blue light images, DW, gargle, saliva, filtered saliva): no difference in fluorescence was observed between solvents
